In patent US9605004B2, “Chemical compounds” (SYNGENTA LIMITED, priority 2013, dated 2017):

What was measured:
[1] = tested on: a variety of test species; assay: Pre-emergence herbicidal activity (Example 8a, Table 2); type: in vivo; parameters: key: 0 = no damage to plant, 5 = total damage to plant; details: application pre-emergence, rate 1000 g/ha, evaluated after 13 days
Protocol: Seeds of a variety of test species were sown in standard soil in pots. After cultivation for one day (pre-emergence) under controlled conditions in a glasshouse (at 24/16° C., day/night; 14 hours light; 65% humidity), the plants were sprayed with an aqueous spray solution derived from the formulation of the technical active ingredient in acetone/water (50:50) solution containing 0.5% Tween 20 (polyoxyethelyene sorbitan monolaurate, CAS RN 9005-64-5). The test plants were then grown in a glasshouse under controlled conditions (at 24/16° C., day/night; 14 hours light; 65% humidity) and watered twice daily. After 13 days, the test was evaluated (5=total damage to plant; 0=no damage to plant).

[2] = tested on: a variety of test species; assay: Post-emergence herbicidal activity (Example 8b, Table 3); type: in vivo; details: application post-emergence, rate 1000 g/ha, evaluated after 13 days, scale 0-5; for Herbicidal damage score, ABUTH: Abutilon theophrasti; for Herbicidal damage score, ALOMY: Alopecurus myosuroides; for Herbicidal damage score, AMARE: Amaranthus retroflexus; for Herbicidal damage score, ECHCG: Echinochloa crus-galli; for Herbicidal damage score, SETFA: Setaria faberi; for Herbicidal damage score, ZEAMX: Zea mays
Protocol: Seeds of a variety of test species were sown in standard soil in pots. After 8 days cultivation (post-emergence) under controlled conditions in a glasshouse (at 24/16° C., day/night; 14 hours light; 65% humidity), the plants were sprayed with an aqueous spray solution derived from the formulation of the technical active ingredient in acetone/water (50:50) solution containing 0.5% Tween 20 (polyoxyethelyene sorbitan monolaurate, CAS RN 9005-64-5). The test plants were then grown in a glasshouse under controlled conditions (at 24/16° C., day/night; 14 hours light; 65% humidity) and watered twice daily. After 13 days, the test was evaluated (5=total damage to plant; 0=no damage to plant).

| SMILES | Pre-emergence herbicidal activity, damage score ABUTH [1] | Pre-emergence herbicidal activity, damage score ALOMY [1] | Pre-emergence herbicidal activity, damage score AMARE [1] | Pre-emergence herbicidal activity, damage score ECHCG [1] | Pre-emergence herbicidal activity, damage score SETFA [1] | Pre-emergence herbicidal activity, damage score ZEAMX [1] | Herbicidal damage score, ABUTH [2] | Herbicidal damage score, ALOMY [2] | Herbicidal damage score, AMARE [2] | Herbicidal damage score, ECHCG [2] | Herbicidal damage score, SETFA [2] | Herbicidal damage score, ZEAMX [2] |
| --- | --- | --- | --- | --- | --- | --- | --- | --- | --- | --- | --- | --- |
| CC1=C(Cl)C(=O)N(c2cc(C(C)C)[nH]n2)C1O (stereo not drawn) [Compound A3] | 5 | 3 | 5 | 5 | 5 | 1 | 5 | 5 | 5 | 5 | 5 | 5 |
| CC1=C(Cl)C(=O)N(c2cc(C3CC3)[nH]n2)C1O (stereo not drawn) [Compound A4] | 5 | 4 | 5 | 5 | 5 | 2 | 5 | 5 | 5 | 5 | 5 | 5 |
| CC1=C(Cl)C(=O)N(c2cc(C)[nH]n2)C1O (stereo not drawn) [Compound A5] | 5 | 3 | 5 | 5 | 4 | 2 | 5 | 4 | 3 | 5 | 5 | 3 |
| CC1=C(Cl)C(=O)N(c2cc(C(F)(F)C(F)(F)F)[nH]n2)C1O (stereo not drawn) [Compound A6] | 5 | 3 | 5 | 4 | 4 | 1 | 5 | 5 | 5 | 5 | 4 | 4 |
| CCC(C)(CC)c1cc(N2C(=O)C(Cl)=C(C)C2O)n[nH]1 (stereo not drawn) [Compound A7] | 5 | 3 | 5 | 5 | 5 | 3 | 5 | 5 | 5 | 5 | 5 | 5 |
| CC1=C(Cl)C(=O)N(c2cc(C)n(C)n2)C1O (stereo not drawn) [Compound B1] | 5 | 3 | 5 | 4 | 4 | 3 | 5 | 4 | 5 | 5 | 5 | 5 |
| CC1=C(Cl)C(=O)N(c2cc(C(C)(C)C)n(C)n2)C1O (stereo not drawn) [Compound B2] | 5 | 4 | 5 | 5 | 5 | 2 | 5 | 5 | 5 | 5 | 5 | 5 |
| CC1=C(Cl)C(=O)N(c2cc(C(F)(F)F)n(C)n2)C1O (stereo not drawn) [Compound B3] | 5 | 4 | 4 | 5 | 4 | 2 | 5 | 5 | 5 | 5 | 5 | 4 |
| CC1=C(Cl)C(=O)N(c2cc(C(F)(F)C(F)(F)F)n(C)n2)C1O (stereo not drawn) [Compound B4] | 5 | 4 | 5 | 5 | 5 | 2 | 5 | 5 | 5 | 5 | 5 | 3 |
| CC1=C(Cl)C(=O)N(c2cc(C(C)C)n(C)n2)C1O (stereo not drawn) [Compound B5] | 5 | 3 | 5 | 5 | 4 | 2 | 5 | 4 | 5 | 5 | 4 | 5 |
| C=CCC(C)(C)c1cc(N2C(=O)C(Cl)=C(C)C2O)nn1C (stereo not drawn) [Compound B6, 4-chloro-1-[5-(1,1-dimethylbut-3-enyl)-1-methyl-pyrazol-3-yl]-2-hydroxy-3-methyl-2H-pyrrol-5-one] | 5 | 4 | 5 | 4 | 5 | 4 | 5 | 5 | 5 | 5 | 5 | 4 |
| CC(C)=Cc1cc(N2C(=O)C(Cl)=C(C)C2O)nn1C (stereo not drawn) [Compound B7, 4-chloro-2-hydroxy-3-methyl-1-[1-methyl-5-(2-methylprop-1-enyl)pyrazol-3-yl]-2H-pyrrol-5-one] | 4 | 2 | 4 | 4 | 4 | 2 | 5 | 4 | 5 | 5 | 5 | 2 |
| CC1=C(Cl)C(=O)N(c2cc(I)n(C)n2)C1O (stereo not drawn) [Compound B8, 4-chloro-2-hydroxy-1-(5-iodo-1-methyl-pyrazol-3-yl)-3-methyl-2H-pyrrol-5-one] | 4 | 4 | 5 | 4 | 5 | 3 | 5 | 5 | 5 | 5 | 5 | 4 |
| CC1=C(Cl)C(=O)N(c2cc(Cl)n(C)n2)C1O (stereo not drawn) [Compound B9] | 4 | 3 | 5 | 4 | 5 | 2 | 5 | 5 | 5 | 5 | 5 | 5 |
